Legend:
[1] = test system: EGFR; assay: Western blot degradation of EGFR (H1975 Cell); assay type: cell-based, Human; conditions: Table D2
Procedure: Conventional Western blot assay was performed to evaluate the effects of the compounds of the present disclosure on the expression of target proteins in cells.
(1) Cell Seeding and Protein Harvesting: The selected cells were processed according to the cell seeding procedure and protein harvesting procedure in Table III-2. Table III-2 Cell Seeding and Protein Harvesting Procedures
(2) To the collected supernatant, 5X SDS sample loading buffer was added, followed by denaturation at 95°C for 5 minutes. The denatured samples were then separated by SDS-PAGE electrophoresis on a polyacrylamide gel. Proteins were transferred to a nitrocellulose membrane (0.45 µm NC membrane), blocked with blocking buffer at room temperature for 1 hour, and subjected to antibody incubation and development procedures according to the antibody manufacturer's instructions (Cell Signaling Technology).
Half-Maximal Degradation Concentration value (the drug concentration required for degrading proteins by 50%, abbreviated as DC50) reads method: comparing the grayscale values of Western blot bands from drug-treated samples with those from blank DMSO-treated controls, and identifying the drug concentration range at which the grayscale value is half that of the DMSO-treated control bands.
DC50 values can be calculated using ImageJ software to measure grayscale values of Western blot bands from drug-treated samples. The concentration-response curve is fitted to estimate the drug concentration corresponding to half the grayscale value.
Target protein remaining (%) refers to the percentage of target protein remaining in hPBMC cells after treatment with protein degrader compounds.
Calculation method for target protein remaining (%): Use ImageJ software to measure grayscale values of Western blot bands from drug (protein degrader)-treated samples. The grayscale value of drug-treated bands is divided by that of internal control protein bands, and the resulting quotient is normalized to obtain the relative percentage of remaining target protein after protein degrader treatment.
Target protein degradation rate (%) = 100% - target protein remaining (%).

[2] = test system: H1975; assay: CCK-8 proliferation, NCI-H1975 (H1975); assay type: cell-based, Human; conditions: Homo sapiens, NCI-H1975; CCK-8; 96 hours; read-out: Inhibitory activity (IC50) on tumor cell proliferation, H1975
In short: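 Tumor cells were cultured at 37°C with 5% CO2, seeded, and after 24h treated with compounds at 10 concentrations starting at 10µM (5-fold serial dilutions).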

| Structure (SMILES) | IC50 [2] [µM] | Degradation of substrate protein EGFR (substrate protein remaining %) [1] |
| --- | --- | --- |
| O=C1CCN(c2ccc(CN3CCN(c4ccc(-c5cc(F)c6c(c5)C(=O)N(C(C(=O)Nc5nccs5)c5ncn7c5CCC7)C6)cc4)CC3)cc2)C(=O)N1 (stereo not shown) [GT-06164, 2-(6,7-dihydro-5H-pyrrolo[1,2-c]imidazol-1-yl)-2-(6-(4-(4-(4-(2,4-dioxotetrahydropyrimidin-1(2H)-yl)benzyl)piperazin-1-yl)phenyl)-4-fluoro-1-oxoisoindolin-2-yl)-N-(thiazol-2-yl)acetamide] | 0.001 to 0.01 | A (A is defined as 0% ≤ substrate protein remaining % ≤ 80%) |
| O=C1CCN(c2ccc(CN3CCN(c4ccc(-c5cc(F)c6c(c5)C(=O)N(C(C(=O)Nc5nccs5)c5ncn7c5CCC7)C6)cc4)CC3)cn2)C(=O)N1 (stereo not shown) [GT-06166, 2-(6,7-dihydro-5H-pyrrolo[1,2-c]imidazol-1-yl)-2-(6-(4-(4-((6-(2,4-dioxotetrahydropyrimidin-1(2H)-yl)pyridin-3-yl)methyl)piperazin-1-yl)phenyl)-4-fluoro-1-oxoisoindolin-2-yl)-N-(thiazol-2-yl)acetamide] | 0.001 to 0.01 | A (A is defined as 0% ≤ substrate protein remaining % ≤ 80%) |
| O=C1CCN(c2cccc(CN3C[C@H]4C[C@@H]3CN4c3ccc(-c4cc(F)c5c(c4)C(=O)N(C(C(=O)Nc4nccs4)c4ncn6c4CCC6)C5)cc3)c2)C(=O)N1 (stereo partly drawn) [GT-06178, 2-(6,7-dihydro-5H-pyrrolo[1,2-c]imidazol-1-yl)-2-(6-(4-((1R,4R)-5-(3-(2,4-dioxotetrahydropyrimidin-1(2H)-yl)benzyl)-2,5-diazabicyclo[2.2.1]heptan-2-yl)phenyl)-4-fluoro-1-oxoisoindolin-2-yl)-N-(thiazol-2-yl)acetamide] | 0.001 to 0.01 | A (A is defined as 0% ≤ substrate protein remaining % ≤ 80%) |
| O=C1CCC(c2ccc(CN3CCN(C4CCN(c5ccc(-c6cc(F)c7c(c6)C(=O)N(C(C(=O)Nc6nccs6)c6ncn8c6CCC8)C7)cc5)CC4)CC3)cc2)C(=O)N1 (stereo not shown) [GT-06243, 2-(6,7-dihydro-5H-pyrrolo[1,2-c]imidazol-1-yl)-2-(6-(4-(4-(4-(4-(2,6-dioxopiperidin-3-yl)benzyl)piperazin-1-yl)piperidin-1-yl)phenyl)-4-fluoro-1-oxoisoindolin-2-yl)-N-(thiazol-2-yl)acetamide] | 0.001 to 0.01 | A (A is defined as 0% ≤ substrate protein remaining % ≤ 80%) |
| O=C1CCN(c2ccc(CN3CCN(C4CCN(c5ccc(-c6cc(F)c7c(c6)C(=O)N(C(C(=O)Nc6nccs6)c6ncn8c6CCC8)C7)cc5)CC4)CC3)cc2)C(=O)N1 (stereo not shown) [GT-06244, 2-(6,7-dihydro-5H-pyrrolo[1,2-c]imidazol-1-yl)-2-(6-(4-(4-(4-(4-(2,4-dioxotetrahydropyrimidin-1(2H)-yl)benzyl)piperazin-1-yl)piperidin-1-yl)phenyl)-4-fluoro-1-oxoisoindolin-2-yl)-N-(thiazol-2-yl)acetamide] | 0.001 to 0.01 | A (A is defined as 0% ≤ substrate protein remaining % ≤ 80%) |
| O=C1CCN(c2ccc(CN3CCN(C4CCN(c5ccc(-c6cc(F)c7c(c6)C(=O)N(C(C(=O)Nc6nccs6)c6ncn8c6CCC8)C7)cc5)CC4(F)F)CC3)nc2)C(=O)N1 (stereo not shown) [GT-06319, 2-(6,7-dihydro-5H-pyrrolo[1,2-c]imidazol-1-yl)-2-(6-(4-(4-(4-((5-(2,4-dioxotetrahydropyrimidin-1(2H)-yl)pyridin-2-yl)methyl)piperazin-1-yl)-3,3-difluoropiperidin-1-yl)phenyl)-4-fluoro-1-oxoisoindolin-2-yl)-N-(thiazol-2-yl)acetamide] | 0.001 to 0.01 | A (A is defined as 0% ≤ substrate protein remaining % ≤ 80%) |

Second part, led by results:

| IC50 [2] [µM] | Structure (SMILES) | Degradation of substrate protein EGFR (substrate protein remaining %) [1] |
| --- | --- | --- |
| 0.001 to 0.01 | O=C1CCC(c2ccc(CN3CCN(c4ccc(-c5cc(F)c6c(c5)C(=O)N(C(C(=O)Nc5nccs5)c5ncn7c5CCC7)C6)cc4)CC3)cc2)C(=O)N1 (stereo not shown) [GT-06163, 2-(6,7-dihydro-5H-pyrrolo[1,2-c]imidazol-1-yl)-2-(6-(4-(4-(4-(2,6-dioxopiperidin-3-yl)benzyl)piperazin-1-yl)phenyl)-4-fluoro-1-oxoisoindolin-2-yl)-N-(thiazol-2-yl)acetamide] | A (A is defined as 0% ≤ substrate protein remaining % ≤ 80%) |
| 0.001 to 0.01 | O=C1CCN(c2cccc(CN3CCN(c4ccc(-c5cc(F)c6c(c5)C(=O)N(C(C(=O)Nc5nccs5)c5ncn7c5CCC7)C6)cc4)CC3)c2)C(=O)N1 (stereo not shown) [GT-06165, 2-(6,7-dihydro-5H-pyrrolo[1,2-c]imidazol-1-yl)-2-(6-(4-(4-(3-(2,4-dioxotetrahydropyrimidin-1(2H)-yl)benzyl)piperazin-1-yl)phenyl)-4-fluoro-1-oxoisoindolin-2-yl)-N-(thiazol-2-yl)acetamide] | A (A is defined as 0% ≤ substrate protein remaining % ≤ 80%) |
| 0.001 to 0.01 | O=C1CCN(c2ccc(CN3C[C@H]4C[C@@H]3CN4c3ccc(-c4cc(F)c5c(c4)C(=O)N(C(C(=O)Nc4nccs4)c4ncn6c4CCC6)C5)cc3)cc2)C(=O)N1 (stereo partly drawn) [GT-06177, 2-(6,7-dihydro-5H-pyrrolo[1,2-c]imidazol-1-yl)-2-(6-(4-((1R,4R)-5-(4-(2,4-dioxotetrahydropyrimidin-1(2H)-yl)benzyl)-2,5-diazabicyclo[2.2.1]heptan-2-yl)phenyl)-4-fluoro-1-oxoisoindolin-2-yl)-N-(thiazol-2-yl)acetamide] | A (A is defined as 0% ≤ substrate protein remaining % ≤ 80%) |
| 0.001 to 0.01 | O=C1CCN(c2ccc(CN3CCN(c4ccc(-c5cc(F)c6c(c5)C(=O)N(C(C(=O)Nc5nccs5)c5ncn7c5CCC7)C6)cc4)CC3)nc2)C(=O)N1 (stereo not shown) [GT-06229, 2-(6,7-dihydro-5H-pyrrolo[1,2-c]imidazol-1-yl)-2-(6-(4-(4-((5-(2,4-dioxotetrahydropyrimidin-1(2H)-yl)pyridin-2-yl)methyl)piperazin-1-yl)phenyl)-4-fluoro-1-oxoisoindolin-2-yl)-N-(thiazol-2-yl)acetamide] | A (A is defined as 0% ≤ substrate protein remaining % ≤ 80%) |
| 0.001 to 0.01 | O=C1CCN(c2cccc(CN3CCN(C4CCN(c5ccc(-c6cc(F)c7c(c6)C(=O)N(C(C(=O)Nc6nccs6)c6ncn8c6CCC8)C7)cc5)CC4)CC3)c2)C(=O)N1 (stereo not shown) [GT-06245, 2-(6,7-dihydro-5H-pyrrolo[1,2-c]imidazol-1-yl)-2-(6-(4-(4-(4-(3-(2,4-dioxotetrahydropyrimidin-1(2H)-yl)benzyl)piperazin-1-yl)piperidin-1-yl)phenyl)-4-fluoro-1-oxoisoindolin-2-yl)-N-(thiazol-2-yl)acetamide] | A (A is defined as 0% ≤ substrate protein remaining % ≤ 80%) |
| 0.001 to 0.01 | O=C1CCN(c2ccc(CN3CCN(C4CCN(c5ccc(-c6cc(F)c7c(c6)C(=O)N(C(C(=O)Nc6nccs6)c6ncn8c6CCC8)C7)cc5)CC4)CC3)nc2)C(=O)N1 (stereo not shown) [GT-06246, 2-(6,7-dihydro-5H-pyrrolo[1,2-c]imidazol-1-yl)-2-(6-(4-(4-(4-((5-(2,4-dioxotetrahydropyrimidin-1(2H)-yl)pyridin-2-yl)methyl)piperazin-1-yl)piperidin-1-yl)phenyl)-4-fluoro-1-oxoisoindolin-2-yl)-N-(thiazol-2-yl)acetamide] | A (A is defined as 0% ≤ substrate protein remaining % ≤ 80%) |
| 0.01 to 0.05 | O=C1CCC(c2ccc(CN3CCN(C4CCN(c5ccc(-c6cc(F)c7c(c6)C(=O)N(C(C(=O)Nc6nccs6)c6ncn8c6CCC8)C7)cc5)CC4(F)F)CC3)cc2)C(=O)N1 (stereo not shown) [GT-06317, 2-(6,7-dihydro-5H-pyrrolo[1,2-c]imidazol-1-yl)-2-(6-(4-(4-(4-(4-(2,6-dioxopiperidin-3-yl)benzyl)piperazin-1-yl)-3,3-difluoropiperidin-1-yl)phenyl)-4-fluoro-1-oxoisoindolin-2-yl)-N-(thiazol-2-yl)acetamide] | A (A is defined as 0% ≤ substrate protein remaining % ≤ 80%) |
| 0.01 to 0.05 | O=C1CCN(c2ccc(CN3CCN(C4CCN(c5ccc(-c6cc(F)c7c(c6)C(=O)N(C(C(=O)Nc6nccs6)c6ncn8c6CCC8)C7)cc5)CC4(F)F)CC3)cc2)C(=O)N1 (stereo not shown) [GT-06318, 2-(6,7-dihydro-5H-pyrrolo[1,2-c]imidazol-1-yl)-2-(6-(4-(4-(4-(4-(2,4-dioxotetrahydropyrimidin-1(2H)-yl)benzyl)piperazin-1-yl)-3,3-difluoropiperidin-1-yl)phenyl)-4-fluoro-1-oxoisoindolin-2-yl)-N-(thiazol-2-yl)acetamide] | A (A is defined as 0% ≤ substrate protein remaining % ≤ 80%) |

Reference: patent publication EP4678638A1, “NEW E3 UBIQUITIN LIGASE LIGAND, PROTEIN DEGRADATION AGENT AND USE THEREOF” (priority 2023, dated 2024)
